Experimental findings from patent US7812045B2, “Antifungal triazole derivatives” (Daewoong Pharmaceutical Co., Ltd., priority 2005, dated 2010) are described below.

SMILES strings stand for the structures. Converted amounts (≈) assume the structure as drawn. Where only a bound is given, the exact number is not on record here.

In series [1] the test system is Aspergillus flavus ATCC MYA-1004. The series is described as follows: In vitro assay for antifungal activity (MIC90). The format is cell-based. The following applies: RPMI 1640, growth read after 48 hours, duplicate, read-out: MIC90 (concentration at which 90% of the fungi were inhibited compared to the negative control). As for the experimental part:
(§1) Fungal strains to be tested were inoculated onto Sabouraud dextrose agar, YM agar, and potato dextrose agar and cultured at 35° C. for two to three days. Individual single colonies of the yeast fungi selected out of the cultured strains were suspended in 5 ml of 0.85% sterile saline, followed by correction to adjust the absorbance thereof at 530 nm to 0.108. The suspensions were diluted serially by 1:50 and then 1:20 in RPMI 1640 media to prepare liquid inocula ranging in cell count from 1.0×10^3 to 5.0×10^3 CFU/ml. As for filamentous fungi, their spores were suspended in 0.85% sterile saline and the suspensions were corrected with sterile saline to show optical transmittance at 530 nm of 80 to 82%. A dilution of 1:50 was made with RPMI 1640 media to prepare liquid inocula having cell counts from […] to 5×10^4 CFU/ml.
(§2) Antifungal samples were prepared by diluting the compounds of the present inventions in RPMI 1640 media to serial concentrations from 0.0625 to 32 μg/ml. As a vehicle, DMSO was contained in a final concentration of 1% (V/V) in the antifungal samples. 0.1 ml of each of the dilutions in series was added to equal volume of each of the fungal inocula.

Series [2] deals with Aspergillus fumigatus ATCC MYA-1163. The series is described as follows: In vitro assay for antifungal activity (MIC90). The following applies: RPMI 1640, growth read after 48 hours, duplicate, read-out: MIC90 (concentration at which 90% of the fungi were inhibited compared to the negative control). The format is cell-based. As for the experimental part:
as §1, §2

In series [3] the test system is Aspergillus niger ATCC 9142. The series is described as follows: In vitro assay for antifungal activity (MIC90). The format is cell-based. Conditions: ATCC9142, RPMI 1640, growth read after 48 hours, duplicate, read-out: MIC90 (concentration at which 90% of the fungi were inhibited compared to the negative control). As for the experimental part: as §1, §2
Series [4] has as its system Aspergillus terreus ATCC 28301. The series is described as follows: In vitro assay for antifungal activity (MIC90). The series is classed as cell-based. Conditions: ATCC28301, RPMI 1640, growth read after 48 hours, duplicate, read-out: MIC90 (concentration at which 90% of the fungi were inhibited compared to the negative control). As for the experimental part:
as §1, §2

Series [5] has as its system Candida albicans ATCC 32033. The series is described as follows: In vitro assay for antifungal activity (MIC90). The format is cell-based. The following applies: ATCC32033, RPMI 1640, growth read after 24 hours, duplicate, read-out: MIC90 (concentration at which 90% of the fungi were inhibited compared to the negative control). As for the experimental part: as §1, §2
In series [6] the test system is Candida glabrata ATCC 34138. The series is described as follows: In vitro assay for antifungal activity (MIC90). The series is classed as cell-based. The following applies: Nakaseomyces glabratus, ATCC34138, RPMI 1640, growth read after 24 hours, duplicate, read-out: MIC90 (concentration at which 90% of the fungi were inhibited compared to the negative control). As for the experimental part: as §1, §2

Series [7] deals with Candida krusei ATCC 6258. The series is described as follows: In vitro assay for antifungal activity (MIC90). The series is classed as cell-based. The following applies: Pichia kudriavzevii, ATCC6258, RPMI 1640, growth read after 24 hours, duplicate, read-out: MIC90 (concentration at which 90% of the fungi were inhibited compared to the negative control). As for the experimental part: as §1, §2

For series [8], the system named is Cryptococcus neoformans ATCC 4065. The series is described as follows: In vitro assay for antifungal activity (MIC90). The format is cell-based. Conditions: ATCC4065, RPMI 1640, duplicate, read-out: MIC90 (concentration at which 90% of the fungi were inhibited compared to the negative control). As for the experimental part: as §1, §2
The test system of series [9] is Candida albicans (ATCC 36082). The series is described as follows: In vivo assay for antifungal activity (survival of infected mice). The following applies: ICR mice infected i.v. with Candida albicans ATCC 36082; for % Survival on Day 21: 20 mg/kg orally once a day for seven days (day 0 to day 6), groups of 10. As for the experimental part: Candida albicans (ATCC 36082) was grown in YM broth on a rotary shaker (200 rpm, 26° C.) for about 12 hours to a concentration of 2.5×10^7 CFU/ml and used to infect ICR mice at a dose of 0.2 ml/head via caudal veins. Suspensions or solutions of the azole compounds in a 25% beta-hydroxypropyl methylcellulose base were orally administered at a dose of 20 mg/kg to respective infected ICR mice in groups of 10, the condition and body weights of the mice were monitored, and autopsies were finally conducted. For a negative control, the vehicle alone was used while fluconazole was administered to a positive control. The mice were inoculated once with the fungal preparation on the day of commencement of the administration. The test materials of interest and the positive control material were orally administered to the inoculated mice once a day for seven days from day 0 to day 6, with the first oral administration made five hours after the fungal inoculation (day 0). The periods of time for which the infected mice lived were counted.
The number of mice which survived the fungal infection for 21 days following the inoculation was represented as % survival for each test group, and the results are given in Table 11, below. All members of the negative control were dead 8 days after the fungal infection, while all of the groups administered with Compound 50 were dead 18 days after the fungal infection.

Series [10] can be described thus: Assay for acute toxicity. Conditions: mice; oral administration, to a dose of 1000 mg/kg; observed for two weeks; suspension in 25% beta-hydroxypropyl methylcellulose base or polyethylene glycol 400. The series is classed as in vivo.
In series [11] the test system is HepG2 cells. The series is described as follows: Assay for cytotoxicity in human hepatocytes (Neutral red). Conditions: overnight incubation, absorbance at 540 nm, triplicate, compound concentration not given.

As to `C[C@@H](N1NCc2ccccc21)[C@](O)(Cn1cncn1)c1ccc(F)cc1F` [Example 50, (2R,3R)-2-(2,4-Difluorophenyl)-3-(2H-indazol-1-yl)-1-(1H-1,2,4-triazol-1-yl)butan-2-ol], the MIC90 in series [1] is 2 µg/mL (≈ 5.39 µM); in series [2], 4 µg/mL (≈ 10.8 µM); in [3], 8 µg/mL (≈ 21.5 µM); in series [4] it was 4 µg/mL (≈ 10.8 µM); in series [5] it was not above 0.015 µg/mL; in series [6], 2 µg/mL (≈ 5.39 µM). Further, the MIC90 was 0.5 µg/mL (≈ 1.35 µM) in [7] and 0.063 µg/mL (≈ 0.17 µM) in [8]. For the same compound, the “time after the fungal infection at which all mice of the group were dead” value in series [9] (20 mg/kg orally once a day for seven days) turned out to be 18 days. The “% Survival on Day 21” value in [9] was 0%. Moreover, the “acute toxicity: toxic syndromes observed” value in [10] was “no toxic syndromes”. In addition, the “Cytotoxicity (percentages of optical density relative to that of the control)” value in [11] came out at 5.2%.

Regarding `C[C@@H](N1Cc2cc(NCc3ccc(Cl)cc3)ccc2N1)[C@](O)(Cn1cncn1)c1ccc(F)cc1F` [Example 245, (2R,3R)-3-(5-(4-chlorobenzylamino)-1H-indazol-2-yl)-2-(2,4-difluorophenyl)-1-(1H-1,2,4-triazol-1-yl)butan-2-ol], the MIC90 in [1] was 0.5 µg/mL (≈ 0.979 µM); in series [2], 0.5 µg/mL (≈ 0.979 µM); in series [3], 2 µg/mL (≈ 3.91 µM); in [4] it was 0.5 µg/mL (≈ 0.979 µM); in series [5], not above 0.015 µg/mL; in series [6], 4 µg/mL (≈ 7.83 µM). Further, the MIC90 in series [7] stood at 0.5 µg/mL (≈ 0.979 µM); in [8] it was 0.125 µg/mL (≈ 0.245 µM). The “% Survival on Day 21” value in series [9] is listed as 40%. Moreover, in series [10], the “acute toxicity: toxic syndromes observed” value is listed as “no toxic syndromes”. In [11], the “Cytotoxicity (percentages of optical density relative to that of the control)” value is given as 9.9%.
